Experimental data reported in US7977375B2, “Antibiotic and method of production thereof” (Helmholtz-Zentrum Für Infektionsforschung GmbH, priority 2004, dated 2011).

Experiments:
Test in all cases: agar diffusion method, inhibition zone
E. faecalis VRAS E305 = assay type: cell-based, Enterococcus faecalis; settings: E. faecalis VRAS E305, MH agar, 18 hours at 37° C., per disk 10 μl crude extract, 50 μg macrolactin, 78 μg erythromycin, 30 μg vancomycin, 10 μg ampicillin
[1] = test system: MRSA 3 (methicillin-resistant S. aureus, clinical isolate); assay type: cell-based, Staphylococcus aureus; settings: Staphylococcus aureus; MRSA 3; MH agar, 18 hours at 37° C.; per disk 10 μl crude extract, 50 μg macrolactin, 78 μg erythromycin, 30 μg vancomycin, 10 μg ampicillin
Method: (§1) The agar diffusion method employing Mueller-Hinton (MH) agar (Difco Laboratories) was used to determine effectiveness against bacteria and yeasts. Sterile paper disks (Schleicher & Schüell, Germany) were seeded with 10 μl crude extract or with a solution of purified macrolactin (final compound concentration on the disk 50 μg) and then placed on the surface of MH-agar plates that had been seeded beforehand with a suspension of overnight culture of the test microorganisms at a concentration of 10^5 cells/ml.

S. aureus DSMZ 1104 = assay type: cell-based, Staphylococcus aureus; settings: Staphylococcus aureus, DSMZ1104; S. aureus DSMZ 1104; MH agar, 18 hours at 37° C.; per disk 10 μl crude extract, 50 μg macrolactin, 78 μg erythromycin, 30 μg vancomycin, 10 μg ampicillin
Method: as §1

[2] = test system: MRSA 2 (methicillin-resistant S. aureus, clinical isolate); assay type: cell-based, Staphylococcus aureus; settings: Staphylococcus aureus; MRSA 2; MH agar, 18 hours at 37° C.; per disk 10 μl crude extract, 50 μg macrolactin, 78 μg erythromycin, 30 μg vancomycin, 10 μg ampicillin
Method: as §1

[3] = test system: S. aureus # (own collection, methicillin-sensitive control strain); assay type: cell-based, Staphylococcus aureus; settings: Staphylococcus aureus; S. aureus # own collection; MH agar, 18 hours at 37° C.; per disk 10 μl crude extract, 50 μg macrolactin, 78 μg erythromycin, 30 μg vancomycin, 10 μg ampicillin
Method: as §1

E. faecium VRAR E315 = assay type: cell-based, Enterococcus faecium; settings: Enterococcus faecium, VRARE315; E. faecium VRAR E315; MH agar, 18 hours at 37° C.; per disk 10 μl crude extract, 50 μg macrolactin, 78 μg erythromycin, 30 μg vancomycin, 10 μg ampicillin
Method: as §1

CC1CCC/C=C/C=C/C(O)CC(O)C/C=C\C=C\C(OC(=O)CC(=O)O)C/C=C/C=C\C(=O)O1 (stereo not shown) [7-O-malonyl macrolactin A]
Inhibition zone (E. faecalis VRAS E305): produced an inhibition zone
zone of inhibition at 50 µg/disc (E. faecalis VRAS E305; Enterococcus faecalis, VRASE305): 15 mm
zone of inhibition at 50 µg/disc [1]: 41 mm
zone of inhibition at 50 µg/disc (S. aureus DSMZ 1104): 26 mm
zone of inhibition at 50 µg/disc [2]: 40 mm
zone of inhibition at 50 µg/disc [3]: 30 mm
zone of inhibition at 50 µg/disc (E. faecium VRAR E315): 15 mm
